Experimental data from patent publication US4826815A, “Renin inhibiting compounds” (Abbott Laboratories, priority 1987, dated 1989).

biological target: T1, human renal renin (Homo sapiens, UniProt P00797); test: In vitro inhibition of human renal renin; angiotensin I formed measured by radioimmunoassay; assay type: biochemical; conditions: @ 10^-5; human renin substrate (angiotensinogen), 37° C., pH 6.0
T1 construct: human renal renin, free from acid proteolytic activity; from tissue
T1 sequence (P00797 67-406): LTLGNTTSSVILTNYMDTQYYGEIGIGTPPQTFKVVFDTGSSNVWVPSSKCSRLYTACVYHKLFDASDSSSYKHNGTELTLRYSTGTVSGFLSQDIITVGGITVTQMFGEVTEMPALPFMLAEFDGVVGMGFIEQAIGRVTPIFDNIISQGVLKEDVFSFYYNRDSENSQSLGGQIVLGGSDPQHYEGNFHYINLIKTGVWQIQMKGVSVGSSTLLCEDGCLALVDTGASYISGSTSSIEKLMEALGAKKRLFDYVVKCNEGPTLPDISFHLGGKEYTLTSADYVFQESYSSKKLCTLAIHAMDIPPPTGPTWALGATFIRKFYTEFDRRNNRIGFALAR
Description: At the end of the incubation, the amount of angiotensin I formed is measured by radioimmunoassay and the percent inhibition or renin is calculated.

Inhibition	Compound
56%	CC(C)CC(NC(=O)C(C)NC(=O)C(Cc1ccccc1)NC(=O)OC(C)(C)C)C(O)CSc1ccccc1 (stereo not drawn) [Example 25, Boc-Phe-Ala amide of 3-amino-2-hydroxy-5-methyl-1 phenylmercaptohexane]
57%	CC(C)CC(NC(=O)C(C)NC(=O)C(Cc1ccccc1)NC(=O)OC(C)(C)C)C(O)CSCc1ccccc1 (stereo not drawn) [Example 28, Boc-Phe-Ala amide of 3 amino 1-benzylmercapto-2 hydroxy-5-methylhexane]
94%	CC(C)CC(NC(=O)C(C)NC(=O)C(Cc1ccccc1)NC(=O)OC(C)(C)C)C(O)CSC1CCCCC1 (stereo not drawn) [Example 29, Boc-Phe-Ala amide of 3-amino-1-cyclohexyl mercapto-2-hydroxy-5-methylhexane]
31%	CC(C)CC(NC(=O)C(C)NC(=O)C(Cc1ccccc1)NC(=O)OC(C)(C)C)C(O)CNc1ccccc1 (stereo not drawn) [Example 31, Boc-Phe-Ala amide of 3-amino-2-hydroxy-5-methyl-1-phenylaminohexane]
46%	CC(C)CC(NC(=O)C(C)NC(=O)C(Cc1ccccc1)NC(=O)OC(C)(C)C)C(O)C[S+]([O-])C1CCCCC1 (stereo not drawn) [Example 55, Boc-Phe Ala amide of 3-amino-1-cyclohexyl sulfinyl-2-hydroxy-5-methylhexane]

same assay, conditions: @ 10^-6; human renin substrate (angiotensinogen), 37° C., pH 6.0

Inhibition	Compound
56%	CC(C)CC(NC(=O)C(Cc1cnc[nH]1)NC(=O)C(Cc1ccccc1)NC(=O)OC(C)(C)C)C(O)CSc1ccccc1 (stereo not drawn) [Example 23, Boc-Phe-His amide of 3-amino-2 hydroxy-5-methyl 1-phenylmercaptohexane]
63%	CC(C)CC(=O)NCC(O)C(CC(C)C)NC(=O)C(Cc1cnc[nH]1)NC(=O)C(Cc1ccccc1)NC(=O)OC(C)(C)C (stereo not drawn) [Example 79, Boc-Phe-His Amide of 3-Amino-2- hydroxy-1-(isovalerylamino)-5-methylhexane]

same assay, conditions: @ 10^-7; human renin substrate (angiotensinogen), 37° C., pH 6.0

Inhibition	Compound
89%	CC(C)(C)OC(=O)NC(Cc1ccccc1)C(=O)NC(Cc1cnc[nH]1)C(=O)NC(Cc1ccccc1)C(O)CSC1CCCCC1 (stereo not drawn) [Example 50, Boc-Phe-His amide of 3-amino-1-cyclohexylmercapto-2-hydroxy-4-phenylbutane]
71%	O=C(NC(Cc1cnc[nH]1)C(=O)NC(CC1CCCCC1)C(O)CSC1CCCCC1)C(Cc1ccccc1)Cc1ccccc1 (stereo not drawn) [Example 81, Dba-His Amide of 3-amino-4-cyclohexyl-1-cyclohexylmercapto-2-hydroxybutane]

same assay, conditions: @ 10^-8; human renin substrate (angiotensinogen), 37° C., pH 6.0

Inhibition	Compound
80%	CC(C)SCC(O)C(CC1CCCCC1)NC(=O)C(Cc1cnc[nH]1)NC(=O)C(Cc1ccccc1)NC(=O)OC(C)(C)C (stereo not drawn) [Example 51, Boc-Phe-His amide of 3 amino-4-cyclohexyl-2-hydroxy-1-isopropylmercaptobutane]
81%	CC(C)(C)OC(=O)NC(Cc1ccccc1)C(=O)NC(Cc1cnc[nH]1)C(=O)NC(CC1CCCCC1)C(O)CS(=O)(=O)C1CCCCC1 (stereo not drawn) [Example 54, Boc-Phe-His amide of 3 amino-4-cyclohexyl-1-cyclohexylsulfonyl-2-hydroxybutane]
82%	CC(C)(C)CC(=O)NC(Cc1ccccc1)C(=O)NC(Cc1c[nH]cn1)C(=O)NC(CC1CCCCC1)C(O)CSC1CCCCC1 (stereo not drawn) [Example 82, Tba-Phe-His-Amide of 3-amino-4-cyclohexyl-1-cyclohexylmercapto-2-hydroxybutane]
